Assay results taken from patent US20250099400A1, “TERPENES FOR USE IN MODULATION OF A PHY[…]” (BUZZELET DEVELOPMENT AND TECHNOLOGIES LTD., priority 2022, published 2025).
In brackets after ≈: the same amount, converted by molar mass.

Legend:
[1] = Solubility in the test solutions; conditions: for solubility relative to the tested concentration range: CB1 dose-response experiment, excluded from analysis
CB1 receptor = target: T1, CB1 receptor (Homo sapiens, UniProt P21554); test: CB1 receptor-activated GIRK currents in Xenopus oocytes (two-electrode voltage clamp); assay type: cell-based; conditions: THC concentrations each supplemented with terpene at a weight/weight ratio of 1/10, compared with THC alone
T1 construct: expressed in transfected cells; host or cells: Xenopus laevis oocytes injected with in vitro transcribed cRNA
Protocol: cDNA plasmids of the two subunits of the G protein-activated inwardly rectifying K^+ channel (GIRK) (GIRK1 and GIRK2), the CB1 receptor, the CB2 receptor, and the α subunit of the G-protein (Gαi3) were linearized with the appropriate restriction enzymes. The linearized plasmids were transcribed in vitro using a standard procedure.
Oocytes were isolated from female adult X. laevis anesthetized (with 1 g/L MS-222) and incubated in NDE96 solution composed of ND96 (in mM: 96 NaCl, 2 KCl, 1 CaCl2, 1 MgCl2, 5 Hepes, with pH adjusted to 7.5 with NaOH) with the addition of 2.5 mM Na^+ pyruvate, 100 units/ml penicillin, and 100 μg/ml streptomycin (16). The isolated oocytes were injected with the relevant cRNAs: cRNAs of CB1 receptor and CB2 receptor (2 ng) and GIRK1 and GIRK2 (200 pg each) were injected. In addition, cRNA of Gαi3 (1000 pg) was injected to decrease the basal GIRK current (IK) and to improve the relative activation by the agonist.
Currents were measured 3-5 days after cRNA injection and were recorded using the standard two-electrode voltage clamp technique (Axoclamp 2B amplifier, Axon Instruments, Foster City, CA).
Each oocyte was placed in a recording bath containing ND96 solution and was impaled with two electrodes pulled from 1.5-mm Clark capillaries (Warner instruments, Hamden, CT). Both electrodes were filled with a 3M KCI solution and the electrode resistance was between 1 and 5 MΩ. The CB1 receptor-mediated GIRK and the CB2 receptor-mediated GIRK currents were measured in 24 mM K^+ solution (in mM: 72 NaCl, 24 KCl, 1 CaCl2, 1 MgCl2, 5 Hepes, with pH adjusted to 7.5 with KOH). Ba^+2 (1 mM) was used to block the currents in order to verify that the measured currents were indeed mediated by GIRK channels.
The dose response curves were fitted by equation 1:
Y=Bottom+X*(Top-Bottom)/(EC50+X), (1)
The responses evoked in the same oocyte by either THC and\or terpenes measurements, were normalized to this reference value.
The Xenopus oocytes functional expression system was used to test the possibility that the presence of various terpenes affects the activation of the CB1 receptor, as depicted schematically in FIG. 1A. To this end, Xenopus oocytes were injected with cRNAs of proteins involved in the pathway leading to activation of K^+ currents by CB1 receptor via βγ subunits of the G-proteins: The CB1 receptor, the two subunits of the GIRK channel (GIRK1 and GIRK2), and the Gαi3 subunit.
First, the dependence of THC-induced K^+ current (ITHC) on THC concentration (dose-response, DR) was measured. The oocyte was voltage-clamped to −80 mV in a low K^+ (2 mM K^+) solution, ND96. Basal GIRK current (IK) was developed upon replacement of the ND96 by the 24 mM K^+solution. This current represents the basal activation of GIRK channel by endogenous By subunits present in the oocytes. Then, five different concentrations of THC were applied sequentially in ascending order giving rise to ITHC. This current was terminated upon washout of THC. Employing this basic experimental protocol, a full DR curve was constructed.
In order to compare between oocytes, ITHC at any particular THC concentration was normalized to ITHC obtained at a 10 μM THC, defined as the reference response, at this same oocyte.

T1 sequence (P21554 whole entry): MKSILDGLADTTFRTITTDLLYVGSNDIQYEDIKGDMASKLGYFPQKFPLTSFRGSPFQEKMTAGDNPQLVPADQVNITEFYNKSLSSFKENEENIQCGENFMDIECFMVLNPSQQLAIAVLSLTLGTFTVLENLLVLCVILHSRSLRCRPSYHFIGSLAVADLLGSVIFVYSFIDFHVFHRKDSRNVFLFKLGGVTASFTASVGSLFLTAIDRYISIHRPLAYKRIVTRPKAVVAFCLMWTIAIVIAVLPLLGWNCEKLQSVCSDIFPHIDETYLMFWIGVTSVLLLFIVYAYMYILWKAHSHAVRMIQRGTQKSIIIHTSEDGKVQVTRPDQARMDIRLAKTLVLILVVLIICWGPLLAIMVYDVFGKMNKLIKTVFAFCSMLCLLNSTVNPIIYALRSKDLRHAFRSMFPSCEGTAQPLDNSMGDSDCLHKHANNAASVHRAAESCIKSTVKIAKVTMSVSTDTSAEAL

Row | Structure (SMILES) | solubility relative to the tested concentration range [1] | effect of terpene addition on the potency of THC in CB1 receptor activation (CB1 receptor) | also measured
1 | C=C1CC/C=C(\C)CC[C@@H]2[C@@H]1CC2(C)C [β-caryophyllene] | below the tested concentration range |  | 
2 | C=CC(C)(O)CCC=C(C)CCC=C(C)C (stereo not drawn) [nerolidol] | below the tested concentration range |  | 
3 | C=CC(C)=CCC=C(C)C [ocimene] |  | significantly enhances the potency of THC | 
4 | C=C1CCC2(C(C)C)CC12 (stereo not drawn) [sabinene] |  | significantly enhances the potency of THC | 
5 | C=C(C)[C@H]1CC=C(C)CC1 [limonene, limonene-D] |  | significantly enhances the potency of THC | 
6 | CCCCCc1cc(O)c2c(c1)OC(C)(C)[C@@H]1CCC(C)=C[C@@H]21 [THC, tetrahydrocannabinol, reference compound] |  |  | solubility ([1]; 24 mM K+ solution, saline or isotonic, kinetic from dmso stock): 10 µM (≈ 3.14 µg/mL)
7 | CC1(C)C2CCC1(C)C(O)C2 (stereo not drawn) [borneol] |  | significantly enhances the potency of THC | 
8 | CC(C)=CCC/C(C)=C/CO [geraniol] |  | significantly enhances the potency of THC | 
9 | C=CC(C)(O)CCC=C(C)C (racemic) [linalool] |  | significantly enhances the potency of THC | 
10 | C/C1=C\CC/C(C)=C/CC(C)(C)/C=C/C1 [humulene] | below the tested concentration range |  | 
11 | CC(C)=CCC[C@](C)(O)C1CC=C(C)CC1 (stereo partly drawn) [bisabolol] | below the tested concentration range |  | 
12 | C=C1CCC2CC1C2(C)C (stereo not drawn) [beta pinene, β-pinene] |  | significantly enhances the potency of THC | 
